Laboratory results taken from ChEMBL document CHEMBL1201862, “PubChem BioAssay data set” (2004).
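How tested: cells in 96-well plates exposed to compound for 48 hours at five concentrations. GI50 = concentration required for 50% inhibition of growth.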 Calls of active or inactive are those of the source. Cut-off read from the data, not from the text of the source: active = GI50 up to about 1.1 µM and inactive = higher.

Legend:
Experiment in all cases: NCI tumour cell line growth inhibition, 48 h
786-0 = system: 786-0
COLO 205 = system: COLO 205
EKVX = system: EKVX
HL-60 = system: HL-60
Hs-578T = system: Hs-578T
K562 = system: K562
KM12 = system: KM12
MCF7 = system: MCF7
MDA-MB-231 = system: MDA-MB-231
MDA-N = system: MDA-N
MOLT-4 = system: MOLT-4
NCI-H522 = system: NCI-H522
OVCAR-5 = system: OVCAR-5
PC-3 = system: PC-3
RXF 393 = system: RXF 393
SF-295 = system: SF-295
SN12C = system: SN12C
SW-620 = system: SW-620
TK-10 = system: TK-10
UO-31 = system: UO-31

SMILES | GI50 (786-0) | GI50 (COLO 205) | GI50 (EKVX) | GI50 (HL-60) | GI50 (Hs-578T) | GI50 (K562) | GI50 (KM12) | GI50 (MCF7) | GI50 (MDA-MB-231) | GI50 (MDA-N) | GI50 (MOLT-4) | GI50 (NCI-H522) | GI50 (OVCAR-5) | GI50 (PC-3) | GI50 (RXF 393) | GI50 (SF-295) | GI50 (SN12C) | GI50 (SW-620) | GI50 (TK-10) | GI50 (UO-31)
COc1cc(-c2c(C#N)c(N)c(C#N)c3c2COc2ccccc2-3)cc(OC)c1OC | 7.93 µM (inactive) | > 100 µM (inactive) | 25.6 µM (inactive) | > 100 µM (inactive) | 16.4 µM (inactive) | > 60.4 µM (inactive) | > 100 µM (inactive) | > 100 µM (inactive) | 15.1 µM (inactive) | > 100 µM (inactive) | > 76.9 µM (inactive) | 84.1 µM (inactive) | > 100 µM (inactive) | > 25.6 µM (inactive) | 16.4 µM (inactive) | 24.9 µM (inactive) | 25.9 µM (inactive) | > 100 µM (inactive) | 17.6 µM (inactive) | > 35.8 µM (inactive)
O=C1C(Cl)C(c2cccc(Br)c2)N1c1c(O)c(Cl)cc(Br)c1Cl (stereo not given) | 23.4 µM (inactive) | 8.63 µM (inactive) | 17 µM (inactive) | 26.4 µM (inactive) | 9.46 µM (inactive) | 15.9 µM (inactive) | 16.7 µM (inactive) | 12.1 µM (inactive) | 17 µM (inactive) | 18.5 µM (inactive) | 13 µM (inactive) | 14.1 µM (inactive) | 26.7 µM (inactive) | 18 µM (inactive) | 10.9 µM (inactive) | 17.4 µM (inactive) | 14.7 µM (inactive) | 19.3 µM (inactive) | 19 µM (inactive) | 16.8 µM (inactive)
CC1(C)CC(=O)C2=C(C1)NC1=C(C(=O)CC(C)(C)C1)C2c1ccc([N+](=O)[O-])cc1 | > 100 µM (inactive) | > 100 µM (inactive) | > 100 µM (inactive) | > 100 µM (inactive) | > 100 µM (inactive) | > 100 µM (inactive) | > 100 µM (inactive) | > 100 µM (inactive) | > 100 µM (inactive) | > 100 µM (inactive) | > 100 µM (inactive) | > 100 µM (inactive) | > 100 µM (inactive) | > 100 µM (inactive) | > 100 µM (inactive) | > 100 µM (inactive) | > 100 µM (inactive) | > 100 µM (inactive) | > 100 µM (inactive) | > 100 µM (inactive)
Cn1cc(-c2cnc(-c3cn(C)c4ccccc34)cn2)c2ccccc21 | 4.6 µM (inactive) | 3.26 µM (inactive) | 10.1 µM (inactive) | 2.72 µM (inactive) | 2.57 µM (inactive) | 3.8 µM (inactive) | 0.0471 µM (active) | 0.194 µM (active) | 15 µM (inactive) | 0.767 µM (active) | 5.66 µM (inactive) | 1.51 µM (inactive) | 14 µM (inactive) | 3.73 µM (inactive) | 3.25 µM (inactive) | 2.44 µM (inactive) | 8.85 µM (inactive) | 3.19 µM (inactive) | 18.6 µM (inactive) | 4.79 µM (inactive)
CC(C)(C)c1ccc(O)c(C(O)c2ccccn2)c1 (stereo not given) | 61.8 µM (inactive) | > 100 µM (inactive) | 54.1 µM (inactive) | 45.1 µM (inactive) | 91.2 µM (inactive) | 42.9 µM (inactive) | 94 µM (inactive) | 77.8 µM (inactive) | > 100 µM (inactive) | > 100 µM (inactive) | 54.2 µM (inactive) | 68.7 µM (inactive) | 31.5 µM (inactive) | 86.1 µM (inactive) | 66.8 µM (inactive) | 57.5 µM (inactive) | 74 µM (inactive) | > 100 µM (inactive) | > 100 µM (inactive) | 39.7 µM (inactive)
Oc1ncc(N(CCCl)CCCl)c(O)n1 [URACIL MUSTARD] | 10 µM (inactive) | 63 µM (inactive) | 85.7 µM (inactive) | 1.43 µM (inactive) | 91 µM (inactive) | 42.5 µM (inactive) | 89.3 µM (inactive) | 14.6 µM (inactive) | 81.3 µM (inactive) | 60.4 µM (inactive) | 1.59 µM (inactive) | 14.3 µM (inactive) | 39.3 µM (inactive) | 57.3 µM (inactive) | 20.7 µM (inactive) | 14.7 µM (inactive) | 8.65 µM (inactive) | 35.3 µM (inactive) | 110 µM (inactive) | 47.3 µM (inactive)
CCCNC(C#N)c1ccc(OCCCCCCCCCCOc2ccc(C(C#N)NCCC)cc2)cc1 (stereo not given) | > 100 µM (inactive) | > 100 µM (inactive) | 60.5 µM (inactive) | 17.3 µM (inactive) | 37.7 µM (inactive) | 23.6 µM (inactive) | 64.7 µM (inactive) | 35.2 µM (inactive) | > 100 µM (inactive) | 29.4 µM (inactive) | 17.1 µM (inactive) | 72.6 µM (inactive) | 69.8 µM (inactive) | 30.8 µM (inactive) | 23.9 µM (inactive) | 31.3 µM (inactive) | 68.9 µM (inactive) | 41.3 µM (inactive) | 29.2 µM (inactive) | 51.8 µM (inactive)
CC1(C)C(=O)/C=C\C(=O)C(C)(C)C2=CC=C(O2)C(C)(C)C(=O)C(Br)C(Br)C(=O)C(C)(C)C2=CC=C1O2 (stereo not given) | 39.6 µM (inactive) | > 81.8 µM (inactive) | > 100 µM (inactive) | 4.76 µM (inactive) | 30.1 µM (inactive) | 5.19 µM (inactive) | 71.8 µM (inactive) | 33.6 µM (inactive) | 27.4 µM (inactive) | > 45 µM (inactive) | 3.3 µM (inactive) | 21.8 µM (inactive) | > 100 µM (inactive) | > 100 µM (inactive) | 31.3 µM (inactive) | > 100 µM (inactive) | > 80 µM (inactive) | 7.4 µM (inactive) | > 100 µM (inactive) | > 92.3 µM (inactive)
CCS(=O)(=O)CCn1cnc2c1c(=O)n(C)c(=O)n2C | > 100 µM (inactive) | > 100 µM (inactive) | > 100 µM (inactive) | > 100 µM (inactive) | > 100 µM (inactive) | > 100 µM (inactive) | > 100 µM (inactive) | > 100 µM (inactive) | > 100 µM (inactive) | > 100 µM (inactive) | > 100 µM (inactive) | > 100 µM (inactive) | > 100 µM (inactive) | > 100 µM (inactive) | > 100 µM (inactive) | > 100 µM (inactive) | > 100 µM (inactive) | > 100 µM (inactive) | > 100 µM (inactive) | > 100 µM (inactive)
COc1cc(/C=N/N=C2NCCCN2)ccc1O | > 100 µM (inactive) | > 100 µM (inactive) | > 100 µM (inactive) | > 100 µM (inactive) | > 100 µM (inactive) | > 100 µM (inactive) | > 100 µM (inactive) | > 100 µM (inactive) | > 100 µM (inactive) | > 100 µM (inactive) | > 100 µM (inactive) | > 100 µM (inactive) | > 100 µM (inactive) | > 100 µM (inactive) | > 100 µM (inactive) | > 100 µM (inactive) | > 100 µM (inactive) | > 100 µM (inactive) | > 100 µM (inactive) | > 100 µM (inactive)
O=Cc1cc2c(s1)C(=O)c1sccc1C2=O | 1.03 µM (active) | 2.21 µM (inactive) | 1.61 µM (inactive) | 0.863 µM (active) | 0.231 µM (active) | 0.541 µM (active) | 2.68 µM (inactive) | 0.564 µM (active) | 0.792 µM (active) | 0.0484 µM (active) | 1.23 µM (inactive) | 0.785 µM (active) | 0.865 µM (active) | 2.08 µM (inactive) | 0.337 µM (active) | 0.169 µM (active) | 0.35 µM (active) | 0.257 µM (active) | 1.92 µM (inactive) | 0.411 µM (active)
CN(C)Cc1cc(C(=O)/C=C/c2ccccc2Cl)cc(CN(C)C)c1O | 7.36 µM (inactive) | 4.23 µM (inactive) | 14.7 µM (inactive) | 4.3 µM (inactive) | 18.3 µM (inactive) | 4.79 µM (inactive) | 7.8 µM (inactive) | 9.66 µM (inactive) | 12.2 µM (inactive) | 13 µM (inactive) | 10.9 µM (inactive) | 3.93 µM (inactive) | 23.1 µM (inactive) | 13.2 µM (inactive) | 17.1 µM (inactive) | 14.6 µM (inactive) | 9.16 µM (inactive) | 4.86 µM (inactive) | 19.7 µM (inactive) | 10.6 µM (inactive)
Nc1nc(Cl)cc(NCC2(O)CCCC2)n1 | > 100 µM (inactive) | > 100 µM (inactive) | > 100 µM (inactive) | > 100 µM (inactive) | > 100 µM (inactive) | > 100 µM (inactive) | > 100 µM (inactive) | > 100 µM (inactive) | > 100 µM (inactive) | > 100 µM (inactive) | > 100 µM (inactive) | > 100 µM (inactive) | > 100 µM (inactive) | > 100 µM (inactive) | > 100 µM (inactive) | > 100 µM (inactive) | > 100 µM (inactive) | > 100 µM (inactive) | > 100 µM (inactive) | 78.9 µM (inactive)
CCOC(=O)C(Cc1ccc(N(CCCl)CCCl)cc1)NC(=O)C(Cc1ccccc1)NC=O (stereo not given) | 0.116 µM (active) | 0.197 µM (active) | 0.332 µM (active) | 0.0638 µM (active) | 0.388 µM (active) | 0.188 µM (active) | 0.48 µM (active) | 0.143 µM (active) | 0.262 µM (active) | 0.24 µM (active) | 0.0289 µM (active) | 0.117 µM (active) | 0.337 µM (active) | 0.27 µM (active) | 0.0614 µM (active) | 0.257 µM (active) | 0.156 µM (active) | 0.184 µM (active) | 0.157 µM (active) | 0.0689 µM (active)
